Laboratory results from patent US10105303B2, “Oral care composition comprising zinc amino acid halides” (Colgate-Palmolive Company, priority 2012, dated 2018).
Where “and” joins values, the source holds several entries; their conditions need not be identical. Identical values can stand only once.

How the values were obtained:
[1] = Dilution experiment of ZLC neat solution: visible flocculation/precipitation and pH; assay type: physicochemical; settings: for final pH value: diluted sample
Procedure: Various dilutions of ZLC are prepared to evaluate its efficiency in producing visible precipitates and/or flocculation, which can be delivered in situ onto an oral surface or into a dental opening, such as open tubules.
A neat solution of ZLC is prepared by 1), reacting 0.5 mole of ZnO powder with 1 mole of lysine HCl in 1 liter of water at room temperature for about 2 hours, and 2) collecting the supernatant through centrifugation followed by filtration using a 0.45 micron membrane. The neat solution has a zinc concentration of 2.39% by weight, and a pH of about 7.03.
Dilution experiment is conducted by mixing the neat solution with deionized water. The neat solution is diluted by 2×, 4×, 6×, 7×, 8×, 10×, 12×, 16×, 20×, 24×, 28×, and 32×, corresponding to initial zinc concentrations of 1.20%, 0.598%, 0.398%, 0.341%, 0.299%, 0.239%, 0.199%, 0.149%, 0.120%, 0.0996%, 0.0854%, 0.0747%, by weight, respectively. The diluted samples are kept at 37° C., and the rates at which flocculation/precipitation occurred are monitored.
pH values of final diluted samples are suitable for oral care applications. […] These pH values were well within the range of 5.5 to 10, which defines the suitable range for oral care formulations.

[2] = Deposition/occlusion assay on dentine slices, confocal imaging; design: species or system human; settings: for Thickness of surface deposits: 16-fold dilution
Procedure: The deposition/occlusion assay is conducted using human dentine slices and the neat solution of Example 5. The dentine slices were prepared by cutting human tooth into thin dentine sections of about 800 microns in thickness, choosing a test side, sanding said test side using a sandpaper of about 600 grit, polishing said test side using a Buehler polishing cloth and 5 micron Buehler aluminum oxide, acid-etching said dentine section in 1% (by weight) citric acid solution for about 20 seconds, sonicating said dentine section for 10 minutes, and storing said dentine section in phosphate buffered saline (PBS, pH 7.4).
For treatment, the neat solution is diluted 16-fold with water, yielding a treatment solution with initial zinc concentration of about 0.149% by weight. The dentine section is immersed in the treatment solution for 1 hour at 37° C. The treated dentine section is then removed from the treatment solution, and rinsed 4 times, each time with 1 mL of PBS. The dentine section is then dried using a paper-based tissue and examined under confocal microscope in both XYZ and XYZ modes. Subsequent treatments are conducted in the same manner.
Dentine sections, as prepared in Example 6, are repeatedly treated with ZLC dilutions with initial zinc concentration of 0.0747% by weight. […] The dentine section is examined under the confocal microscope after each treatment.

[Zn(C6H14N2O2)2Cl]^+Cl^− [ZLC]
Samples with flocculation and/or precipitation ([1]; after a total of 19 hours, 37° C.): all samples except the one with initial zinc concentration of 1.20%
final pH value ([1]; initial zinc concentration 0.0747%): 7.99
final pH value ([1]; initial zinc concentration 0.0854%): 8.13
final pH value ([1]; initial zinc concentration 0.0996%): 8.11
final pH value ([1]; initial zinc concentration 0.120%): 7.97
final pH value ([1]; initial zinc concentration 0.149%): 7.99
final pH value ([1]; initial zinc concentration 0.199 wt %): 6.80
final pH value ([1]; initial zinc concentration 0.239%): 6.70
pH of the neat solution ([1]; neat solution, zinc concentration 2.39% by weight): about 7.03
Initial zinc concentration of the additional sample with flocculation ([1]; two hours after mixing, 37° C.): 0.299%
Initial zinc concentrations of dilutions with visible flocculation ([1]; within 30 minutes from mixing with water, 37° C.): 0.149% and 0.199%
Deposition and occlusion on dentine surface ([2]; after 4 consecutive treatments, 0.0747% zinc, 10 minutes each at 37° C.): significant surface deposition
Deposition and occlusion on dentine surface ([2]; after 12 consecutive treatments, 0.0747% zinc, 10 minutes each at 37° C.): complete surface coverage
Thickness of surface deposits ([2]; after second treatment, 1 hour at 37° C.): ≥ 10 microns
Thickness of surface deposits ([2]; after third treatment, 1 hour at 37° C.): ≥ 25 microns
Deposition and occlusion on dentine surface ([2]; first treatment, 16-fold dilution (about 0.149% zinc), 1 hour at 37° C.): noticeable deposition
Visible precipitation during treatment ([2]; initial zinc concentration 0.0747%, 10 minutes at 37° C.): no precipitation is observed by naked eyes
Deposition and occlusion on dentine surface ([2]; second treatment, 16-fold dilution (about 0.149% zinc), 1 hour at 37° C.): complete surface coverage, including blocking of substantially all tubule openings
Deposition and occlusion on dentine surface ([2]; third treatment, 16-fold dilution (about 0.149% zinc), 1 hour at 37° C.): complete surface coverage and complete blocking of tubule openings
